Test results as given in patent US12398154B2, “Azaquinazoline pan-KRas inhibitors” (Mirati Therapeutics, Inc., priority 2020, dated 2025).

Assays:
[1] = tested on: phospho-ERK in A549 (G12S) cells; experiment: Inhibition of KRas-mediated phosphorylation of ERK (in-cell western); format: cell-based; conditions: Homo sapiens, 3 hours compound, phospho-ERK normalized to GAPDH
Outline: (§1)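 Following fixation in formaldehyde and permeabilization in cold methanol, ERK phosphorylated at Thr202/Tyr204 was quantified against GAPDH.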

[2] = tested on: phospho-ERK in AsPC-1 (G12D) cells; experiment: as above; format: cell-based; conditions: Homo sapiens, ASPC1, 3 h, 3 hours compound, phospho-ERK normalized to GAPDH
Outline: as §1

[3] = tested on: phospho-ERK in HCT116 (G13D) cells; experiment: as above; format: cell-based; conditions: Homo sapiens, HCT-116, 3 hours compound, phospho-ERK normalized to GAPDH
Outline: as §1

[4] = tested on: phospho-ERK in MKN1 (WTdep) cells; experiment: as above; format: cell-based; conditions: Homo sapiens, MKN-1, 3 hours compound, phospho-ERK normalized to GAPDH
Outline: as §1

[5] = tested on: phospho-ERK in NCI-H358 (G12C) cells; experiment: as above; format: cell-based; conditions: Homo sapiens, 3 hours compound, phospho-ERK normalized to GAPDH
Outline: as §1

[6] = tested on: phospho-ERK in NCI-H460 (Q61H) cells; experiment: as above; format: cell-based; conditions: Homo sapiens, NCI-H460, 3 h, 3 hours compound, phospho-ERK normalized to GAPDH
Outline: as §1

[7] = tested on: phospho-ERK in NCI-H727 (G12V) cells; experiment: as above; format: cell-based; conditions: Homo sapiens, NCI-H727, 3 h, 3 hours compound, phospho-ERK normalized to GAPDH
Outline: as §1

[8] = tested on: phospho-ERK in PSN-1 (G12R) cells; experiment: as above; format: cell-based; conditions: Homo sapiens, PSN1, 3 hours compound, phospho-ERK normalized to GAPDH
Outline: as §1

KRas G12D = KRas G12D (Homo sapiens, UniProt P01116, G12D); experiment: biochemical;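 note: TR-FRET displacement binding assay on KRas, read after a one-hour incubation at room temperature, IC50 fitted from percent-of-control values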
Chain of KRas G12D (P01116 1-169 isoform P01116-2 G12D): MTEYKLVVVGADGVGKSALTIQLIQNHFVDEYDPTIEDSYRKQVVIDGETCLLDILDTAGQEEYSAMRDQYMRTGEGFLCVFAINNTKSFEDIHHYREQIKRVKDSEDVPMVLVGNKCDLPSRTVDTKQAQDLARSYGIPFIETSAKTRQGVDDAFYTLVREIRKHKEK
Protocol: (§2) The ability of a compound to bind to KRas was measured using a TR-FRET displacement assay. […] After a 60-minute incubation at room temperature, the reaction was measured using a BMG LABTECH CLARIO star Plus via TR-FRET. […] The POC values were fit to a 4-parameter IC50 equation and the IC50 value reported.

KRas G12V = KRas G12V (Homo sapiens, UniProt P01116, G12V); experiment: biochemical;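 note: KRas binding measured by TR-FRET displacement at room temperature, IC50 fitted from percent of control values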
Chain of KRas G12V (P01116 1-169 isoform P01116-2 G12V): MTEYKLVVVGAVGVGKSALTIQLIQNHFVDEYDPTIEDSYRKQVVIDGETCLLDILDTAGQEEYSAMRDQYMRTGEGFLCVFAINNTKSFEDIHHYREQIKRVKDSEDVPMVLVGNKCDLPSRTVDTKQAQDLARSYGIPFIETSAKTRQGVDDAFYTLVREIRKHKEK
Protocol: as §2

KRas G12R = KRas G12R (Homo sapiens, UniProt P01116, G12R); experiment: biochemical;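 note: TR-FRET displacement assay of compound binding to KRas, read after one hour at room temperature, potency from a four-parameter fit of percent-of-control values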
Chain of KRas G12R (P01116 1-169 isoform P01116-2 G12R): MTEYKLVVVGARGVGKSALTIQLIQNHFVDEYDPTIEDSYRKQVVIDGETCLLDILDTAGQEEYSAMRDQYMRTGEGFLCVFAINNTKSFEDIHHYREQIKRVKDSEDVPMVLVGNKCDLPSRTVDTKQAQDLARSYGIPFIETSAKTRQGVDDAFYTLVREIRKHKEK
Protocol: as §2

Row | Structure (SMILES) | IC50 [1] | IC50 [2] | IC50 [3] | IC50 [4] | IC50 [5] | IC50 [6] | IC50 [7] | IC50 [8] | IC50 (KRas G12D) | IC50 (KRas G12V) | IC50 (KRas G12R)
1 | Cc1n[nH]c(C2CCCN(c3nc(OCC45CCCN4CCC5)nc4c(F)c(-c5cc(O)cc6ccc(F)c(F)c56)ncc34)C2)n1 (stereo not shown) [Example 138, 5,6-difluoro-4-(8-fluoro-2-((hexahydro-1H-pyrrolizin-7a-yl)methoxy)-4-(3-(3-methyl-1H-1,2,4-triazol-5-yl)piperidin-1-yl)pyrido[4,3-d]pyrimidin-7-yl)naphthalen-2-ol] | ≥ 10000 nM | ≥ 10000 nM | ≥ 10000 nM | ≥ 10000 nM | ≥ 10000 nM | ≥ 10000 nM | ≥ 10000 nM | ≥ 10000 nM | 12 nM | 5 nM | 5 nM
2 | CCc1c(F)ccc2cc(O)cc(-c3ncc4c(NCc5ccc6[nH]cnc6c5)nc(OC[C@@]56CCCN5C[C@H](F)C6)nc4c3F)c12 [Example 139, 4-(4-(((1H-benzo[d]imidazol-5-yl)methyl)amino)-8-fluoro-2-(((2R,7aS)-2-fluorohexahydro-1H-pyrrolizin-7a-yl)methoxy)pyrido[4,3-d]pyrimidin-7-yl)-5-ethyl-6-fluoronaphthalen-2-ol] | ≥ 10000 nM | ≥ 10000 nM | ≥ 10000 nM | 307 nM | 115 nM | 7510 nM | ≥ 10000 nM | ≥ 10000 nM | 8 nM | ≤ 2 nM | ≤ 2 nM
3 | CCc1c(F)ccc2cc(O)cc(-c3ncc4c(NCc5ncc6cc[nH]c6n5)nc(OC[C@@]56CCCN5C[C@H](F)C6)nc4c3F)c12 [Example 142, 4-(4-(((7H-pyrrolo[2,3-d]pyrimidin-2-yl)methyl)amino)-8-fluoro-2-(((2R,7aS)-2-fluorohexahydro-1H-pyrrolizin-7a-yl)methoxy)pyrido[4,3-d]pyrimidin-7-yl)-5-ethyl-6-fluoronaphthalen-2-ol] | ≥ 10000 nM | 2870 nM | 6960 nM | 45 nM | 78 nM | 212 nM | ≥ 10000 nM | ≥ 10000 nM | 14 nM | ≤ 2 nM | ≤ 2 nM
4 | CCc1c(F)ccc2cc(O)cc(-c3ncc4c(NCc5ccc(=O)[nH]c5)nc(OC[C@@]56CCCN5C[C@H](F)C6)nc4c3F)c12 [Example 143] | ≥ 10000 nM | ≥ 10000 nM | ≥ 10000 nM | 300 nM | 527 nM | ≥ 10000 nM | ≥ 10000 nM | ≥ 10000 nM | 4 nM | ≤ 2 nM | ≤ 2 nM
5 | CCc1c(F)ccc2cc(O)cc(-c3ncc4c(N5CCCC(c6ncn[nH]6)C5)nc(OC[C@@]56CCCN5C[C@H](F)C6)nc4c3F)c12 (stereo partly drawn) [Example 145, 4-(4-(3-(1H-1,2,4-triazol-5-yl)piperidin-1-yl)-8-fluoro-2-(((2R,7aS)-2-fluorohexahydro-1H-pyrrolizin-7a-yl)methoxy)pyrido[4,3-d]pyrimidin-7-yl)-5-ethyl-6-fluoronaphthalen-2-ol] | ≥ 10000 nM | ≥ 10000 nM | ≥ 10000 nM | 258 nM | 379 nM | 847 nM | ≥ 10000 nM | ≥ 10000 nM | 9 nM | 6 nM | 3 nM
6 | CCc1c(F)ccc2cc(O)cc(-c3ncc4c(N5CCCC(C(N)=O)C5)nc(OC[C@@]56CCCN5C[C@H](F)C6)nc4c3F)c12 (stereo partly shown) [Example 147] | 1950 nM | ≥ 10000 nM | ≥ 10000 nM | 65 nM | 79 nM | 383 nM | ≥ 10000 nM | ≥ 10000 nM | 4 nM | 3 nM | 3 nM
7 | CCc1c(F)ccc2cc(O)cc(-c3ncc4c(Nc5ccon5)nc(OC[C@@]56CCCN5C[C@H](F)C6)nc4c3F)c12 [Example 152, 5-ethyl-6-fluoro-4-(8-fluoro-2-(((2R,7aS)-2-fluorohexahydro-1H-pyrrolizin-7a-yl)methoxy)-4-(isoxazol-3-ylamino)pyrido[4,3-d]pyrimidin-7-yl)naphthalen-2-ol] | ≥ 10000 nM | ≥ 10000 nM | ≥ 10000 nM | 6290 nM | ≥ 10000 nM | ≥ 10000 nM | ≥ 10000 nM | ≥ 10000 nM | 175 nM | 8 nM | 10 nM
8 | CCc1c(F)ccc2cc(O)cc(-c3ncc4c(N5CCN(c6ncccc6C#N)CC5)nc(OC[C@@]56CCCN5C[C@H](F)C6)nc4c3F)c12 [Example 155] | ≥ 10000 nM | 1720 nM | ≥ 10000 nM | 196 nM | 329 nM | 399 nM | 2670 nM | ≥ 10000 nM | 118 nM | 4 nM | 3 nM
9 | CCc1c(F)ccc2cc(O)cc(-c3ncc4c(NCCc5c[nH]c6ncccc56)nc(OC[C@@]56CCCN5C[C@H](F)C6)nc4c3F)c12 [Example 157, 4-(4-((2-(1H-pyrrolo[2,3-b]pyridin-3-yl)ethyl)amino)-8-fluoro-2-(((2R,7aS)-2-fluorohexahydro-1H-pyrrolizin-7a-yl)methoxy)pyrido[4,3-d]pyrimidin-7-yl)-5-ethyl-6-fluoronaphthalen-2-ol] | 448 nM | 751 nM | 893 nM | 31 nM | 31 nM | 585 nM | 4720 nM | ≥ 10000 nM | 12 nM | ≤ 2 nM | ≤ 2 nM
10 | CCc1c(F)ccc2cc(O)cc(-c3ncc4c(NCc5cc[nH]n5)nc(OC[C@@]56CCCN5C[C@H](F)C6)nc4c3F)c12 [Example 159, 4-(4-(((1H-pyrazol-3-yl)methyl)amino)-8-fluoro-2-(((2R,7aS)-2-fluorohexahydro-1H-pyrrolizin-7a-yl)methoxy)pyrido[4,3-d]pyrimidin-7-yl)-5-ethyl-6-fluoronaphthalen-2-ol] | 4070 nM | ≥ 10000 nM | 2110 nM | 133 nM | 139 nM | 1510 nM | 2000 nM | ≥ 10000 nM | 39 nM | 3 nM | 5 nM
11 | CCc1c(F)ccc2cc(O)cc(-c3ncc4c(NCc5cn[nH]c5)nc(OC[C@@]56CCCN5C[C@H](F)C6)nc4c3F)c12 [Example 160, 4-(4-(((1H-pyrazol-4-yl)methyl)amino)-8-fluoro-2-(((2R,7aS)-2-fluorohexahydro-1H-pyrrolizin-7a-yl)methoxy)pyrido[4,3-d]pyrimidin-7-yl)-5-ethyl-6-fluoronaphthalen-2-ol] | 974 nM | 5520 nM | 1600 nM | 146 nM | 149 nM | 471 nM | 727 nM | ≥ 10000 nM | 15 nM | ≤ 2 nM | ≤ 2 nM
12 | CCc1c(F)ccc2cc(O)cc(-c3ncc4c(NCc5c[nH]cn5)nc(OC[C@@]56CCCN5C[C@H](F)C6)nc4c3F)c12 [Example 164, 4-(4-(((1H-imidazol-4-yl)methyl)amino)-8-fluoro-2-(((2R,7aS)-2-fluorohexahydro-1H-pyrrolizin-7a-yl)methoxy)pyrido[4,3-d]pyrimidin-7-yl)-5-ethyl-6-fluoronaphthalen-2-ol] | ≥ 10000 nM | ≥ 10000 nM | ≥ 10000 nM | 207 nM | 602 nM | 6820 nM | ≥ 10000 nM | ≥ 10000 nM | 28 nM | 3 nM | 3 nM
13 | CCc1c(F)ccc2cc(O)cc(-c3ncc4c(NCCCc5ccncc5)nc(OC[C@@]56CCCN5C[C@H](F)C6)nc4c3F)c12 [Example 176, 5-ethyl-6-fluoro-4-(8-fluoro-2-(((2R,7aS)-2-fluorohexahydro-1H-pyrrolizin-7a-yl)methoxy)-4-((3-(pyridin-4-yl)propyl)amino)pyrido[4,3-d]pyrimidin-7-yl)naphthalen-2-ol] | ≥ 10000 nM | ≥ 10000 nM | ≥ 10000 nM | 701 nM | 1250 nM | 3510 nM | 3950 nM | ≥ 10000 nM | 108 nM | 20 nM | 30 nM
14 | CCc1c(F)ccc2cc(O)cc(-c3ncc4c(OCCCc5cccnc5)nc(OC[C@@]56CCCN5C[C@H](F)C6)nc4c3F)c12 [Example 298, 5-ethyl-6-fluoro-4-(8-fluoro-2-(((2R,7aS)-2-fluorohexahydro-1H-pyrrolizin-7a-yl)methoxy)-4-(3-(pyridin-3-yl)propoxy)pyrido[4,3-d]pyrimidin-7-yl)naphthalen-2-ol] | ≥ 10000 nM | ≥ 10000 nM | ≥ 10000 nM | 2710 nM | 5010 nM | ≥ 10000 nM | ≥ 10000 nM | ≥ 10000 nM | 1520 nM | 133 nM | 99 nM
